# From patent US7749698B2, “p53 wild-type as biomarker for the treatment with mTOR inhibitors in combination with a cytotoxic agent” (Novartis AG, priority 2004, dated 2010)
# What was measured:
# [1] = test system: MDA-MB231 human breast carcinoma cells; assay: YO-PRO cell death/cytotoxicity assay, gemcitabine combination; format: cell-based; details: MDA-MB231, p53 mutated/deficient; 20 nM with gemcitabine
# Method: (§1) p53 (TP53) wild-type human adenocarcinoma A549 (CCL-185) tumor cells (American Type Culture Collection, Rockville, Md., USA) are seeded at a density of 2×10^3 cells/100 μl per well in 96-well plates and incubated for 24 hours at 37° C. and 5% CO2. Cells are incubated with suboptimal concentrations of gemcitabine (e.g. 5 to 17.5 nM) either in combination with 20 nM 40-O-(2-hydroxyethyl) rapamycin or with the vehicle-control DMSO for an additional 72 hours. YO-PRO dye (YO-PRO^R-1 iodide [491/509], cat #Y3603, Molecular Probes) is added to the cells and a Cytofluor II Fluorescence plate reader is used to determine cell death or cytotoxicity and, after cell lysis, the relative cell proliferation.
# (§2) This procedure is repeated however with the use of p53 (TP53) mutated/deficient tumor cell lines, e.g. PC3M human prostate carcinoma cells (seeded at a density of 0.8×10^3 cells/100 μl) or MDA-MB231 human breast carcinoma cells (seeded at a density of 2×10^3 cells/100 μl; HTB-26; American Type Culture Collection).
# [2] = test system: PC3M human prostate carcinoma cells; assay: as above; format: cell-based; details: p53 mutated/deficient, 20 nM with gemcitabine
# Method: as §1, §2
# [3] = test system: p53 (TP53) wild-type human lung adenocarcinoma A549 cells; assay: YO-PRO cell death/cytotoxicity assay, cisplatin combination; format: cell-based
# Method: (§3) p53 (TP53) wild-type human lung adenocarcinoma A549 cells are seeded at a density of 5×10^3 cells/100 μl per well in 96-well plates and incubated for 24 hours at 37° C. and 5% CO2. Cells are incubated with suboptimal concentrations of cisplatin (e.g. 3 to 10 μg/ml) either in combination with 20 nM 40-O-(2-hydroxyethyl) rapamycin or with the vehicle-control DMSO for an additional 24 hours. The YO-PRO® assay is performed as above to determine cell death or cytotoxicity and, after cell lysis, the relative cell proliferation. […] In the latter case, incubation with compounds is for 30 hours.
# [4] = test system: p53 (TP53) wild-type human adenocarcinoma A549 (CCL-185) tumor cells; assay: YO-PRO cell death/cytotoxicity assay, gemcitabine combination; format: cell-based; details: 20 nM with gemcitabine 5 to 17.5 nM, 72 hours, p<0.05, ANOVA with Tukey test
# Method: as §1
# A549 cells [5] = assay: PARP cleavage immunoblot, gemcitabine combination; format: cell-based, human; details: 20 nM with gemcitabine 5 to 12.5 nM, 72 hours, compared to gemcitabine or the mTOR inhibitor alone
# Method: A549 cells are seeded at a density of 0.1×10^6 cells/10 ml per 10 cm plates and incubated for 24 hours at 37° C. and 5% CO2. Cells are incubated with suboptimal concentrations of gemcitabine (e.g. 5 to 12.5 nM) either in combination with 20 nM 40-O-(2-hydroxyethyl) rapamycin or with the vehicle-control DMSO for an additional 72 hours. Cell extracts corresponding to 50 μg total protein are resolved by 8% SDS-PAGE electrophoresis and immunoblot analysis is performed using rabbit polyclonal antibodies raised against Poly (ADP-Ribose) Polymerase (PARP) (Cell Signalling Technology catalogue #9542). […] This confirms the above results that, in the p53 (TP53) wild-type A549 cells, the presence of the mTOR inhibitor results in higher levels of cell death at suboptimal gemcitabine concentrations.
# PC3M = assay: YO-PRO cell death/cytotoxicity assay, cisplatin combination; format: cell-based, human; details: p53 mutated/deficient, 20 nM with cisplatin, 30 hours
# Method: as §3
# (§4) This procedure is repeated however with the use of p53 (TP53) mutated/deficient tumor cell lines, e.g. PC3M (seeded at a density of 3×10^3 cells/100 μl) or DU145 (seeded at a density of 5×10^3 cells/100 μl:HTB-81; American Type Culture Collection). The incubation with compounds in this case is 22 hours for DU145 or 30 hours for PC3M.
# A549 cells [6] = assay: PARP cleavage immunoblot, cisplatin combination; format: cell-based, human; details: 20 nM with cisplatin 0.5 to 4 μg/ml, 24 hours, compared to cisplatin or the mTOR inhibitor alone
# Method: A549 cells are seeded at a density of 0.1×10^6 cells/10 ml per 10 cm plates and incubated for 24 hours at 37° C. and 5% CO2. Cells are incubated with suboptimal concentrations of cisplatin (e.g. 0.5 to 4 μg/ml) either in combination with 20 nM 40-O-(2-hydroxyethyl) rapamycin or with the vehicle-control DMSO for an additional 24 hours. Cell extracts corresponding to 50 μg total protein are resolved on 8% SDS-PAGE electrophoresis and immunoblot analysis is performed using rabbit polyclonal antibodies raised against Poly (ADP-Ribose) Polymerase (PARP) and p53. […] This confirms the above results that, in the p53 (TP53) wild-type A549 cells, the presence of the mTOR inhibitor results in higher levels of cell death at suboptimal cisplatin concentrations.
# [7] = test system: p53 (TP53) wild-type A549 cells; assay: p21 and Bax immunoblot, cisplatin with or without mTOR inhibitor; format: cell-based, human; details: for Bax protein expression: either agent alone or in combination
# Method: (§5) p53 (TP53) wild-type A549 and MCF7 cells are seeded at a density of 0.3×10^6 and 0.4×10^6 cells/4 ml per 6 cm plates, respectively, and incubated for 24 hours at 37° C. and 5% CO2. Cells are incubated with suboptimal concentrations of cisplatin (e.g. 0.5 to 4 μg/ml) either in combination with 20 nM 40-O-(2-hydroxyethyl) rapamycin or with the vehicle-control DMSO for an additional 24 hours and 30 hours, respectively. Cell extracts corresponding to 30 μg total protein are resolved on 15% SDS-PAGE electrophoresis and immunoblot analysis is performed using mouse monoclonal antibodies raised against p21 (Oncogene Research Products, Clone EA10, catalogue #OP64). […] Strikingly, the presence of the mTOR inhibitor, e.g. 40-O-(2-hydroxyethyl) rapamycin, attenuates cisplatin-induced upregulation of p21 protein expression. In contrast, Bax protein expression, a p53-regulated pro-apoptotic protein, is unaffected by either agent alone or in combination. In this assay cytotoxic-induced p21 protein expression is inhibited by the presence of the mTOR inhibitor. This provides an explanation for the enhanced cell killing/apoptotic response observed with cisplatin and mTOR inhibitor combinations.
# [8] = test system: p53 (TP53) wild-type MCF7 cells; assay: as above; format: cell-based, human; details: for Bax protein expression: either agent alone or in combination
# Method: as §5
# DU145 = assay: YO-PRO cell death/cytotoxicity assay, cisplatin combination; format: cell-based; details: DU145, p53 mutated/deficient; 20 nM with cisplatin, 22 hours
# Method: as §3, §4
# [9] = test system: p53 (TP53) wild-type A549 cells; assay: p53 siRNA transfection, cisplatin treatment, p53/p21/PARP immunoblot; format: cell-based, human; details: A549 untransfected or LacZ siRNA control transfected
# Method: p53 (TP53) wild-type A549 cells are seeded at a density of 0.1×10^6 cells/5 ml per 6 cm plates and incubated for 24 hours at 37° C. and 5% CO2. Cells are left untransfected or transiently transfected with 100 nM siRNA targeting either human p53 (Accession number: NM000546; target sequence: 5′-GCA TCT TAT CCG AGT GGA A-3′) or LacZ (Accession number: M55068; target sequence: 5′-GCGGCTGCCGGAATTTACCTT-3′) control siRNA, using Oligofectamine (Invitrogen, Cat # 12252-011). After 30 hours incubation, cells are incubated with increasing concentrations of cisplatin (e.g. 0.5 to 6 μg/ml) for an additional 24 hours. Cell extracts corresponding to 30 μg (p21) and 50 μg (p53 and PARP) total protein are resolved on 15% (p21) and 10% (p53 and PARP) SDS-PAGE electrophoresis, and immunoblot analysis is performed using mouse monoclonal and rabbit polyclonal antibodies raised against p21 and p53/PARP, respectively. […] The same effects on p53 expression, p21 expression and PARP cleavage are also observed with two other siRNA's targeting human p53 (target sequences: 5′-GGA AGA CTC CAG TGG TAA T-3′ and 5′-GAT ATT GAA CAA TGG TTC A-3′).
# [10] = test system: p53 (TP53) wild-type A549 cells; assay: p21 siRNA transfection, cisplatin treatment, p21/PARP immunoblot; format: cell-based, human; details: A549 untransfected or LacZ siRNA control transfected; cisplatin 1 to 2 μg/ml, 24 hours
# Method: p53 (TP53) wild-type A549 cells are seeded at a density of 0.1×10^6 cells/5 ml per 6 cm plates and incubated for 24 hours at 37° C. and 5% CO2. Cells are left untransfected or transiently transfected with 100 nM siRNA targeting either p21 (Accession number: NM000389; target sequence: 5′-GTG GAC AGC GAG CAG CTG A-3′) or LacZ (as above) control siRNA, using Oligofectamine (Invitrogen, Cat # 12252-011). After 30 hours incubation, cells are incubated with suboptimal concentrations of cisplatin (e.g. 1 to 2 μg/ml) for an additional 24 hours. Cell extracts corresponding to 30 μg (p21) and 50 μg (PARP) total protein are resolved on 15 and 10% SDS-PAGE electrophoresis, respectively, and immunoblot analysis is performed using mouse monoclonal and rabbit polyclonal antibodies raised against p21 and PARP, respectively.
# [11] = cisplatin 0.5 to 6 μg/ml, 24 hours
Compound,potentiation of cell death [1],potentiation of cell death [2],"potentiation of the cell killing effect of suboptimal concentrations of cisplatin ([3]; 20 nM with cisplatin 3 to 10 μg/ml, 24 hours, p<0.05, ANOVA with Tukey test)",interaction between RAD001 and cisplatin (two-way ANOVA) ([3]; p<0.001),potentiation of the cell killing effect of suboptimal concentrations of gemcitabine [4],PARP cleavage (a marker of apoptosis) at suboptimal gemcitabine concentrations (A549 cells [5]),potentiation of cell death (PC3M),PARP cleavage (a marker of apoptosis) at suboptimal cisplatin concentrations (A549 cells [6]),"cisplatin-induced upregulation of p21 protein expression ([7]; 20 nM with cisplatin 0.5 to 4 μg/ml, 24 hours)",Bax protein expression [7],"cisplatin-induced upregulation of p21 protein expression ([8]; 20 nM with cisplatin 0.5 to 4 μg/ml, 30 hours)",Bax protein expression [8],potentiation of cell death (DU145),"p21 protein expression ([7]; cisplatin alone 0.5 to 4 μg/ml, 24 hours)","p21 protein expression ([8]; cisplatin alone 0.5 to 4 μg/ml, 30 hours)",PARP cleavage (a marker of apoptosis) ([9]; at higher cisplatin concentrations (2 to 6 μg/ml)),"p21 protein expression [9, 11]","p53 protein expression [9, 11]",PARP cleavage (a marker of apoptosis) [10],p21 protein expression [10]
CO[C@H]1C[C@@H]2CC[C@@H](C)[C@@](O)(O2)C(=O)C(=O)N2CCCC[C@H]2C(=O)O[C@H]([C@H](C)C[C@@H]2CC[C@@H](OCCO)[C@H](OC)C2)CC(=O)[C@H](C)/C=C(\C)[C@@H](O)[C@@H](OC)C(=O)[C@H](C)C[C@H](C)/C=C/C=C/C=C/1C [40-O-(2-hydroxyethyl) rapamycin],No striking or consistent potentiation,No striking or consistent potentiation,statistically significant potentiation,highly significant,statistically significant potentiation,increased PARP cleavage,No striking or consistent potentiation,increased PARP cleavage,attenuates,unaffected,attenuates,unaffected,No striking or consistent potentiation,,,,,,,
N.N.[Cl][Pt][Cl] [cisplatin],,,,,,,,,,unaffected,,unaffected,,induces increased p21 protein expression in a concentration-dependent manner,induces increased p21 protein expression in a concentration-dependent manner,evidence of PARP cleavage,induces p53 and p21 protein expression in a concentration-dependent manner,induces p53 and p21 protein expression in a concentration-dependent manner,little evidence of PARP cleavage,induces p21 protein expression in a concentration-dependent manner
